# Assay results published in patent US20110236395A1, “TREATMENT OF FIBROTIC EYE DISORDERS USING AN MMP2 INHIBITOR” (UNIVERSITY OF EAST ANGLIA, priority 2008, published 2011).
# Key:
# FHL 124 cells = assay: Patch contraction assay (TGF-β-induced matrix contraction); format: cell-based, human
# Experimental: FIG. 2. […] FHL 124 cells were seeded to form patches, maintained in serum-free medium before exposure to experimental conditions. All cultures were maintained for 72 hours in 5% EMEM (Eagle's minimal essential medium) alone or 5% FCS (fetal calf serum) EMEM supplemented with 10 ng/mL TGF-β1 or -β2±the MMP inhibitor GM6001 (25 μM). (A) Visual representations of patch assay cultures in different experimental conditions. (B) Quantified data showing differences in patch area. (C) Data showing differences in cell populations between patch areas (Coomassie blue dye was extracted and quantified from the same experiment as presented in (B)). In FIGS. 2(B) and (C) each left hand bar of the bar pairs reports the result in the absence of GM6001 (indicated as “−GM6001” in the key) and the right hand bar reports the result in the presence of GM6001 (indicated as “+GM6001” in the key). Data represent mean±SEM. * Indicates a significant difference from unstimulated control cells. # Indicates a significant difference between siMMP2 treated cells and SCR siRNA counterparts (p≦0.05, ANOVA with the Tukey test).
# FIG. 6. MMP2 is important for TGF-β-induced matrix contraction. FHL 124 cells were seeded to form patches, then transfected with siRNA targeted to MMP2 or SCR negative control and maintained in Optimem™ (Invitrogen Corporation; Optimem is a modified EMEM, buffered with HEPES and sodium bicarbonate and supplemented with hypoxanthine, thymidine, sodium pyruvate, L-glutamine or Glutamax, trace elements and growth factor; the protein level is minimal (15 μg/mL) with insulin and transferrin being the only protein supplements; phenol red is included as a pH indicator). Patches were measured after 72 hours of culture with 10 ng/mL TGF-β1 or […]. (A) Visual representations of patch assay cultures in different experimental conditions. (B) Quantified data showing differences in patch area. (C) Data showing differences in cell populations between patch areas (Coomassie blue dye was extracted and quantified from the same experiment as presented in (B)). In FIGS. 6(B) and (C) each left hand bar of the bar pairs reports the result with Scramble siRNA (indicated as “Scramble SiRNA” in the key) and the right hand bar reports the result in the presence of MMP2 specific siRNA (indicated as “MMP2 SiRNA” in the key). The data in (B) and (C) represent the mean±SEM (n≦4). *Indicates a significant difference from unstimulated control cells. # Indicates a significant difference between siMMP2 treated cells and SCR siRNA counterparts (p≦0.05, ANOVA with the Tukey test).
# FIG. 7. MMP2 inhibition using neutralising antibody ([…]) prevents TGF-β2 (10 ng/ml)-induced matrix contraction assessed by patch assay. In FIG. 7(B) each left hand bar of the bar pairs reports the result in the absence of the antibody (indicated as “−4 μg/ml Anti MMP2” in the key) and the right hand bar reports the result in the presence of the antibody (indicated as “+4 μg/ml Anti MMP2” in the key). Data expressed as Mean±SEM (n=3).
# FHL 124 cells were seeded at four sites on a tissue culture dish at 5000 cells in 25 μl and maintained in EMEM supplemented with 5% FCS until confluent regions spanning about 5 mm developed (Wormstone et al, Exp. Eye Res. (2004), 78, pages 705-14). The medium was then replaced with non-supplemented EMEM, and the cells were cultured for a further 24 hours, followed by the removal of medium from four patch culture dishes fixed for 30 minutes with 4% formaldehyde at room temperature, followed by washing in PBS. The patches were used as a t=0 reference control.
# All remaining cell cultures were exposed to experimental conditions for up to 3 days. Experiments were terminated after the appearance of cell-free regions (holes) within the central region of the patch, by fixation for 30 minutes with 4% formaldehyde at room temperature. […]
# MMP2 = assay: Gelatin zymography of MMP2 protein expression after siRNA transfection; format: cell-based, human; details: over a 72 hour period, zymography of culture media
# Experimental: FIG. 5. SiMMP2 suppresses MMP2 protein expression. […] However, throughout this period the MMP2 level in the siMMP2 treated cells is about 50% of the siRNA control cells (SCR). In FIG. 5A each left hand bar of the bar pairs reports the result with Scramble siRNA (indicated as “Scramble SiRNA” in the key) and the right hand bar reports the result in the presence of MMP2 specific siRNA (indicated as “MMP2 SiRNA” in the key).
# Gelatinolytic activity of culture media was analyzed by electrophoresis under non-reducing conditions on a 7% SDS-polyacrylamide gel containing 0.5 mg/mL denatured collagen type I (gelatin; Sigma) as previously described by Gavrilovic J. et al. (Cell Regul. (1990) 1, pages 1003-14). After electrophoresis, gels were washed twice in 2.5% Triton-X 100 for 15 minutes and then incubated for 4 hours at 37° C. in 100 mM Tris-HCl (pH 7.9), 30 mM CaCl2, and 0.02% sodium azide. The gels were stained with Coomassie brilliant blue (Sigma), and the images were captured with a gel scanner.
# Custom made MMP2 siRNA: sense 5′-[…]-3′ (SEQ. ID. NO: 1), antisense 5′-[…]-3′ (SEQ. ID. NO: 2) and siRNA negative control (universal scrambled siRNA) were used. Both siRNAs were purchased from Ambion Ltd. (Huntingdon, UK). FHL 124 cells were seeded onto 35-mm culture dishes at either 25,000 cells in 1.5 ml for protein extraction or as four patches of 5000 cells, for patch assay analysis. […]
# [1] = siMMP2 transfected, 10 ng/ml TGF-β1 or TGF-β2, 72 hours
substance,measurement,setting,value
"siMMP2: Custom made MMP2 siRNA: sense 5′-GGACACACUAAAGAAGAUGTT-3′, antisense 5′-CAUCUUCUUUAGUGUGUCCTT-3′, purchased from Ambion (chemistry not given here)",TGF-β-induced contraction,FHL 124 cells; [1],did not show any evidence of contraction
same,patch area vs non-TGF-β-treated controls,FHL 124 cells; [1],did not differ significantly from non-TGF-β-treated controls
same,patch area vs SCR control,"FHL 124 cells; siRNA transfected, non-stimulated conditions (no TGF-β)",did not show a statistical difference in patch area from the SCR control
same,MMP2 protein level relative to Scrambled siRNA control,MMP2,about 50%
same,MMP2 protein level relative to Scrambled siRNA control,MMP2; listed as siRNA against MMP2,approximately 50%
